US7875647B2, “Heteroaryl-pyrazole derivatives as cannabinoid CB1 receptor antagonists” (Green Cross Corporation, priority 2006, dated 2011)

Target: T1, Cannabinoid-1 receptor (CB1R) (Rattus norvegicus, UniProt P20272)
T1 construct: The tissue obtained from the brain of SD rats was homogenized; from tissue; host or cells: brain of SD rats (membrane pellet of the homogenate)
Assay: Cannabinoid-1 receptor (CB1R) binding affinity assay ([3H]CP-55940, rat CB-1 receptor binding protocol)
Conditions: brain tissue of SD rats, [3H]CP-55940, 30° C. 60 min; read-out: IC50

T1 sequence (P20272 whole entry): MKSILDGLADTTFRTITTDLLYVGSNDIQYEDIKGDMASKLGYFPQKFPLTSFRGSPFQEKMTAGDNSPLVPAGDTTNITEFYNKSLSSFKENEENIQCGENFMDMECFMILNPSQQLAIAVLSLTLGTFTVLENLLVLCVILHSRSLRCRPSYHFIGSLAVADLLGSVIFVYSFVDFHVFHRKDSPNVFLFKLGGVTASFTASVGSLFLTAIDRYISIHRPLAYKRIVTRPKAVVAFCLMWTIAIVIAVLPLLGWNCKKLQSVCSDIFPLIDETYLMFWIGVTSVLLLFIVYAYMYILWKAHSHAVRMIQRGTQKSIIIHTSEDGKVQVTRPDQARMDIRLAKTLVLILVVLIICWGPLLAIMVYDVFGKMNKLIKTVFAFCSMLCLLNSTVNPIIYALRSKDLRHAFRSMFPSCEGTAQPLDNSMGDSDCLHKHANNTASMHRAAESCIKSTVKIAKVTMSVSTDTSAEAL

Question: How did the IC50 turn out when FC(F)(F)C1(c2nnc(-c3nn(-c4ccc(Cl)cc4Cl)c(-c4ccc(Cl)cc4)c3Cn3cncn3)o2)CCC1 [Example 321, 2-(4-((1H-1,2,4-triazol-1-yl)methyl)-5-(4-chlorophenyl)-1-(2,4-dichlorophenyl)-1H-pyrazol-3-yl)-5-(1-(trifluoromethyl)cyclobutyl)-1,3,4-oxadiazole] was run?
Answer: 1.73 nM

Question: For Clc1ccc(-c2c(Cn3cncn3)c(-c3nnc(C4(c5ccc(Cl)cc5)CCC4)o3)nn2-c2ccc(Cl)cc2Cl)cc1 [Example 322, 2-(4-((1H-1,2,4-triazol-1-yl)methyl)-5-(4-chlorophenyl)-1-(2,4-dichlorophenyl)-1H-pyrazol-3-yl)-5-(1-(4-chlorophenyl)cyclobutyl)-1,3,4-oxadiazole], which IC50 is on record?
Answer: 3.41 nM

Question: For Clc1ccc(-c2c(Cn3cncn3)c(-c3nnc(C4(c5ccccc5)CCCC4)o3)nn2-c2ccc(Cl)cc2Cl)cc1 [Example 323, 2-(4-((1H-1,2,4-triazol-1-yl)methyl)-5-(4-chlorophenyl)-1-(2,4-dichlorophenyl)-1H-pyrazol-3-yl)-5-(1-phenylcyclopentyl)-1,3,4-oxadiazole], which IC50 is on record?
Answer: 5.29 nM

Question: Which IC50 does the source give for Clc1ccc(-c2c(Cn3cncn3)c(-c3nnc(C4(c5ccc(Cl)cc5)CCCC4)o3)nn2-c2ccc(Cl)cc2Cl)cc1 [Example 324, 2-(4-((1H-1,2,4-triazol-1-yl)methyl)-5-(4-chlorophenyl)-1-(2,4-dichlorophenyl)-1H-pyrazol-3-yl)-5-(1-(4-chlorophenyl)cyclopentyl)-1,3,4-oxadiazole] here?
Answer: 4.66 nM

Question: Which IC50 does the source give for CC(C)(C)c1nnc(-c2nn(-c3ccccc3Cl)c(-c3ccc(Cl)cc3)c2Cn2cncn2)o1 [Example 325, 2-(4-((1H-1,2,4-triazol-1-yl)methyl)-1-(2-chlorophenyl)-5-(4-chlorophenyl)-1H-pyrazol-3-yl)-5-tert-butyl-1,3,4-oxadiazole] here?
Answer: 2.26 nM

Question: For CC(C)(C)c1nnc(-c2nn(-c3ccc(Cl)cc3Cl)c(-c3ccc(Br)cc3)c2Cn2cncn2)o1 [Example 329, 2-(4-((1H-1,2,4-triazol-1-yl)methyl)-5-(4-bromophenyl)-1-(2,4-dichlorophenyl)-1H-pyrazol-3-yl)-5-tert-butyl-1,3,4-oxadiazole], which IC50 is on record?
Answer: 2.75 nM

Question: CC(C)(C)c1nnc(-c2nn(-c3ccc(Cl)cc3Cl)c(-c3ccc(Cl)cc3)c2Cc2nnn[nH]2)o1 [Example 330, 2-(4-((1H-tetrazol-5-yl)methyl)-5-(4-chlorophenyl)-1-(2,4-dichlorophenyl)-1H-pyrazol-3-yl)-5-tert-butyl-1,3,4-oxadiazole] was tested. Which IC50 did it give?
Answer: 897 nM

Question: How did the IC50 turn out when Cn1nnnc1Cc1c(-c2nnc(C(C)(C)C)o2)nn(-c2ccc(Cl)cc2Cl)c1-c1ccc(Cl)cc1 [Example 332, 2-tert-butyl-5-(5-(4-chlorophenyl)-1-(2,4-dichlorophenyl)-4-((1-methyl-1H-tetrazol-5-yl)methyl)-1H-pyrazol-3-yl)-1,3,4-oxadiazole] was run?
Answer: 14.8 nM

Question: How did the IC50 turn out when Clc1ccc(-c2c(Cl)c(-c3nnc(C4CCC4)o3)nn2-c2ccc(Cl)cc2Cl)cc1 [Example 333, 2-(4-chloro-5-(4-chlorophenyl)-1-(2,4-dichlorophenyl)-1H-pyrazol-3-yl)-5-cyclobutyl-1,3,4-oxadiazole] was run?
Answer: 150 nM

Question: Which IC50 does the source give for CCC(C)(C)c1nnc(-c2nn(-c3ccc(Cl)cc3Cl)c(-c3ccc(Cl)cc3)c2Cl)o1 [Example 334, 2-(4-chloro-5-(4-chlorophenyl)-1-(2,4-dichlorophenyl)-1H-pyrazol-3-yl)-5-tert-pentyl-1,3,4-oxadiazole] here?
Answer: 51 nM

Question: Which IC50 does the source give for Clc1ccc(-c2c(Cl)c(-c3nnc(C4CCCCC4)o3)nn2-c2ccc(Cl)cc2Cl)cc1 [Example 335, 2-(4-chloro-5-(4-chlorophenyl)-1-(2,4-dichlorophenyl)-1H-pyrazol-3-yl)-5-cyclohexyl-1,3,4-oxadiazole] here?
Answer: 512 nM

Question: Which IC50 does the source give for CCC(C)c1nnc(-c2nn(-c3ccc(Cl)cc3Cl)c(-c3ccc(Cl)cc3)c2Cl)o1 (stereo not drawn) [Example 336, 2-sec-butyl-5-(4-chloro-5-(4-chlorophenyl)-1-(2,4-dichlorophenyl)-1H-pyrazol-3-yl)-1,3,4-oxadiazole] here?
Answer: 207 nM

Question: How did the IC50 turn out when CC(C)(C)c1nnc(-c2nn(-c3ccc(Cl)cc3Cl)c(-c3ccc(Cl)cc3)c2Cl)o1 [Example 337, 2-tert-butyl-5-(4-chloro-5-(4-chlorophenyl)-1-(2,4-dichlorophenyl)-1H-pyrazol-3-yl)-1,3,4-oxadiazole] was run?
Answer: 105 nM

Question: CC(C)(C)c1nnc(-c2nn(-c3ccc(Cl)cc3Cl)c(-c3ccc(Cl)cc3)c2Br)o1 [Example 338, 2-(4-bromo-5-(4-chlorophenyl)-1-(2,4-dichlorophenyl)-1H-pyrazol-3-yl)-5-tert-butyl-1,3,4-oxadiazole] was tested. Which IC50 did it give?
Answer: 30.4 nM

Question: With CCC(C)c1nnc(-c2nn(-c3ccc(Cl)cc3Cl)c(-c3ccc(Cl)cc3)c2Br)o1 (stereo not drawn) [Example 339, 2-(4-bromo-5-(4-chlorophenyl)-1-(2,4-dichlorophenyl)-1H-pyrazol-3-yl)-5-sec-butyl-1,3,4-oxadiazole] as the compound, how does the IC50 read?
Answer: 21.3 nM

Question: Which IC50 does the source give for Clc1ccc(-c2c(Br)c(-c3nnc(C4CCC4)o3)nn2-c2ccc(Cl)cc2Cl)cc1 [Example 340, 2-(4-bromo-5-(4-chlorophenyl)-1-(2,4-dichlorophenyl)-1H-pyrazol-3-yl)-5-cyclobutyl-1,3,4-oxadiazole] here?
Answer: 35.5 nM

Question: Clc1ccc(-c2c(Br)c(-c3nnc(C4CCCCC4)o3)nn2-c2ccc(Cl)cc2Cl)cc1 [Example 341, 2-(4-bromo-5-(4-chlorophenyl)-1-(2,4-dichlorophenyl)-1H-pyrazol-3-yl)-5-cyclohexyl-1,3,4-oxadiazole] was tested. Which IC50 did it give?
Answer: 81.4 nM

Question: With CCC(C)(C)c1nnc(-c2nn(-c3ccc(Cl)cc3Cl)c(-c3ccc(Cl)cc3)c2Br)o1 [Example 342, 2-(4-bromo-5-(4-chlorophenyl)-1-(2,4-dichlorophenyl)-1H-pyrazol-3-yl)-5-tert-pentyl-1,3,4-oxadiazole] as the compound, how does the IC50 read?
Answer: 27.8 nM

Question: With CC(C)(c1ccc(Cl)cc1)c1nnc(-c2nn(-c3ccc(Cl)cc3Cl)c(-c3ccc(Cl)cc3)c2Br)o1 [Example 343, 2-(4-bromo-5-(4-chlorophenyl)-1-(2,4-dichlorophenyl)-1H-pyrazol-3-yl)-5-(2-(4-chlorophenyl)propan-2-yl)-1,3,4-oxadiazole] as the compound, how does the IC50 read?
Answer: 22.2 nM

Question: How did the IC50 turn out when Clc1ccc(-c2c(Br)c(-c3nnc(C4(c5ccc(Cl)cc5)CC4)o3)nn2-c2ccc(Cl)cc2Cl)cc1 [Example 344, 2-(4-bromo-5-(4-chlorophenyl)-1-(2,4-dichlorophenyl)-1H-pyrazol-3-yl)-5-(1-(4-chlorophenyl)cyclopropyl)-1,3,4-oxadiazole] was run?
Answer: 11.6 nM

Question: With Cc1c(-c2nnc(C3CCC3)s2)nn(-c2ccc(Cl)cc2Cl)c1-c1ccc(Cl)cc1 [Example 345, 2-(5-(4-chlorophenyl)-1-(2,4-dichlorophenyl)-4-methyl-1H-pyrazol-3-yl)-5-cyclobutyl-1,3,4-thiadiazole] as the compound, how does the IC50 read?
Answer: 4.08 nM

Question: For Cc1c(-c2nnc(C3CCCC3)s2)nn(-c2ccc(Cl)cc2Cl)c1-c1ccc(Cl)cc1 [Example 346, 2-(5-(4-chlorophenyl)-1-(2,4-dichlorophenyl)-4-methyl-1H-pyrazol-3-yl)-5-cyclopentyl-1,3,4-thiadiazole], which IC50 is on record?
Answer: 8.8 nM

Question: Cc1c(-c2nnc(-c3cccs3)s2)nn(-c2ccc(Cl)cc2Cl)c1-c1ccc(Cl)cc1 [Example 351, 2-(5-(4-chlorophenyl)-1-(2,4-dichlorophenyl)-4-methyl-1H-pyrazol-3-yl)-5-(thiophen-2-yl)-1,3,4-thiadiazole] was tested. Which IC50 did it give?
Answer: 63.3 nM

Question: How did the IC50 turn out when Cc1c(-c2nnc(Cc3ccccn3)s2)nn(-c2ccc(Cl)cc2Cl)c1-c1ccc(Cl)cc1 [Example 352, 2-(5-(4-chlorophenyl)-1-(2,4-dichlorophenyl)-4-methyl-1H-pyrazol-3-yl)-5-(pyridin-2-ylmethyl)-1,3,4-thiadiazole] was run?
Answer: 41.2 nM

Question: How did the IC50 turn out when Cc1c(-c2nnc(C(C)C)s2)nn(-c2ccc(Cl)cc2Cl)c1-c1ccc(Cl)cc1 [Example 353, 2-(5-(4-chlorophenyl)-1-(2,4-dichlorophenyl)-4-methyl-1H-pyrazol-3-yl)-5-isopropyl-1,3,4-thiadiazole] was run?
Answer: 21.5 nM

Question: How did the IC50 turn out when Cc1c(-c2nnc(Cc3ccccc3)s2)nn(-c2ccc(Cl)cc2Cl)c1-c1ccc(Cl)cc1 [Example 354, 2-benzyl-5-(5-(4-chlorophenyl)-1-(2,4-dichlorophenyl)-4-methyl-1H-pyrazol-3-yl)-1,3,4-thiadiazole] was run?
Answer: 26 nM

Question: With CCCCc1nnc(-c2nn(-c3ccc(Cl)cc3Cl)c(-c3ccc(Cl)cc3)c2C)s1 [Example 355, 2-Butyl-5-(5-(4-chlorophenyl)-1-(2,4-dichlorophenyl)-4-methyl-1H-pyrazol-3-yl)-1,3,4-thiadiazole] as the compound, how does the IC50 read?
Answer: 46 nM

Question: With Cc1c(-c2nnc(-c3ccccc3)s2)nn(-c2ccc(Cl)cc2Cl)c1-c1ccc(Cl)cc1 [Example 356, 2-(5-(4-Chlorophenyl)-1-(2,4-dichlorophenyl)-4-methyl-1H-pyrazol-3-yl)-5-phenyl-1,3,4-thiadiazole] as the compound, how does the IC50 read?
Answer: 231 nM

Question: How did the IC50 turn out when Cc1c(-c2nnc(CC3CCCC3)s2)nn(-c2ccc(Cl)cc2Cl)c1-c1ccc(Cl)cc1 [Example 357, 2-(5-(4-Chlorophenyl)-1-(2,4-dichlorophenyl)-4-methyl-1H-pyrazol-3-yl)-5-(cyclopentylmethyl)-1,3,4-thiadiazole] was run?
Answer: 30.9 nM

Question: With Cc1c(-c2nnc(C3CCOCC3)s2)nn(-c2ccc(Cl)cc2Cl)c1-c1ccc(Cl)cc1 [Example 358, 2-(5-(4-Chlorophenyl)-1-(2,4-dichlorophenyl)-4-methyl-1H-pyrazol-3-yl)-5-(tetrahydro-2H-pyran-4-yl)-1,3,4-thiadiazole] as the compound, how does the IC50 read?
Answer: 54.3 nM

Question: Which IC50 does the source give for Cc1c(-c2nnc(C3CCCO3)s2)nn(-c2ccc(Cl)cc2Cl)c1-c1ccc(Cl)cc1 (stereo not drawn) [Example 359, 2-(5-(4-Chlorophenyl)-1-(2,4-dichlorophenyl)-4-methyl-1H-pyrazol-3-yl)-5-(tetrahydrofuran-2-yl)-1,3,4-thiadiazole] here?
Answer: 27.6 nM

Question: How did the IC50 turn out when Cc1nnc(-c2nn(-c3ccc(Cl)cc3Cl)c(-c3ccc(Cl)cc3)c2C)s1 [Example 360, 2-(5-(4-chlorophenyl)-1-(2,4-dichlorophenyl)-4-methyl-1H-pyrazol-3-yl)-5-methyl-1,3,4-thiadiazole] was run?
Answer: 97.2 nM

Question: How did the IC50 turn out when CCCCCc1nnc(-c2nn(-c3ccc(Cl)cc3Cl)c(-c3ccc(Cl)cc3)c2C)s1 [Example 361, 2-(5-(4-Chlorophenyl)-1-(2,4-dichlorophenyl)-4-methyl-1H-pyrazol-3-yl)-5-pentyl-1,3,4-thiadiazole] was run?
Answer: 69.2 nM
